The source made the active and inactive calls.
Assays:
HEK293 [1] = test: cells; conditions: Homo sapiens
[2] = target: T1, Microphthalmia-associated transcription factor (Homo sapiens, UniProt O75030); test: TRPM1 promoter luciferase signal decrease, dose response, MITF inhibitor project, cell-based, SK-MEL-5, cherry-picked, set 3 (AID 493073); type: functional
T1 sequence (O75030 whole entry): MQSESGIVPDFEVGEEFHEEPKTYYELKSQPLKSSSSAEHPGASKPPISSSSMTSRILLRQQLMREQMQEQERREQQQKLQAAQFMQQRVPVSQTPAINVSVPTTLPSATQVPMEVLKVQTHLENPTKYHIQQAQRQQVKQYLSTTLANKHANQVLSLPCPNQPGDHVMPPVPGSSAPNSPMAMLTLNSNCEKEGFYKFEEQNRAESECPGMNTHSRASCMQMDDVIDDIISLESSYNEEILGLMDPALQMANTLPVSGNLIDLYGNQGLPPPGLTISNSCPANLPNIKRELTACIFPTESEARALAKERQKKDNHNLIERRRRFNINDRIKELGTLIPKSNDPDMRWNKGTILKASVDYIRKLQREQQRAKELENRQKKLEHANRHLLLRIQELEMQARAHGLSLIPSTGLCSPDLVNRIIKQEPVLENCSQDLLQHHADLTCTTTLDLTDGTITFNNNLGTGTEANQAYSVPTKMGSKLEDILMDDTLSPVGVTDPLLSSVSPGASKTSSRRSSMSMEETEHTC

A-375 = test: MITF: Counter assay: A375 proliferation Measured in Cell-Based System Using Plate Reader - 2084-03_Inhibitor_Dose_DryPowder_Activity. [Related pubchem assays (depositor defined):AID488944]; type: functional; conditions: Homo sapiens
Tumor necrosis factor = Tumor necrosis factor (Homo sapiens, UniProt P01375); test: TNFa-triggered NF-kB activation inhibitors, SAR follow-up, cell-based, revised (AID 2337); type: functional
Chain of Tumor necrosis factor (P01375 whole entry, the tested form may be a part): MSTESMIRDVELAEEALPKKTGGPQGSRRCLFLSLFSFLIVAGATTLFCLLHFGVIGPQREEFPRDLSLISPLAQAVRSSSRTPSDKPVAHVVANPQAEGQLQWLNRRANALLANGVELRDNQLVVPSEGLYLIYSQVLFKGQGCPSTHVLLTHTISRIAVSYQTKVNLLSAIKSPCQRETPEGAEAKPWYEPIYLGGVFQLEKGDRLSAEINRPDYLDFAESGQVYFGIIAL

[3] = target: T2, Carboxy-terminal domain RNA polymerase II polypeptide A small phosphatase 1 (Homo sapiens, UniProt Q9GZU7); test: inhibitors of CTDSP1, concentration-response testing, biochemical assay, absorbance-based, actives from ultra-high-throughput screening (AID 540297); type: functional
T2 sequence (Q9GZU7 whole entry): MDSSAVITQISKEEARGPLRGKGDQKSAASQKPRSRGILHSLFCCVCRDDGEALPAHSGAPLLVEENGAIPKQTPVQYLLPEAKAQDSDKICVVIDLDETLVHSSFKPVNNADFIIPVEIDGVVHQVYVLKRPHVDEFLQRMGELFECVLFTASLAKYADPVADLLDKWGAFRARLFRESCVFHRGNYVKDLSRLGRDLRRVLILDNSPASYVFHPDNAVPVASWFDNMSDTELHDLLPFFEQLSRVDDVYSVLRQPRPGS

Cytochrome P450 2D6 = Cytochrome P450 2D6 (Homo sapiens, UniProt P10635);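 also: CYP2D6 member of a cytochrome P450 panel assay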
Chain of Cytochrome P450 2D6 (P10635 whole entry): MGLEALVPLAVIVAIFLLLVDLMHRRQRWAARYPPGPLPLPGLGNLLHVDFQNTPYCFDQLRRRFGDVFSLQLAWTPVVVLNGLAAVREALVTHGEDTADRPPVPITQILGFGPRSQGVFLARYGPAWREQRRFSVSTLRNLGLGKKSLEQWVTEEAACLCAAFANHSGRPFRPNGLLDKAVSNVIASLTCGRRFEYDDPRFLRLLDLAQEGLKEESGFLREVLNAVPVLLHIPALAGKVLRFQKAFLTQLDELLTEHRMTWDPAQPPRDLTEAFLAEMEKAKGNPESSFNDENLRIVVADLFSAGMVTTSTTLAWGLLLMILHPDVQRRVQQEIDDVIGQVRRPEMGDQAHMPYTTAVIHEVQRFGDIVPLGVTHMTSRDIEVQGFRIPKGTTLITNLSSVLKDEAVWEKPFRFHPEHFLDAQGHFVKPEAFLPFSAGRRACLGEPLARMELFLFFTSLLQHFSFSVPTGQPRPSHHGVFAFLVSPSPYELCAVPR

HeLa = test: HeLa cell cytotoxicity, dose response, cytotoxicity control for MITF activator project, CellTiter-Glo luminescence, cherry-pick samples (AID 540259); type: functional, cell-based; conditions: Homo sapiens
Cytochrome P450 2C9 = Cytochrome P450 2C9 (Homo sapiens, UniProt P11712)
Chain of Cytochrome P450 2C9 (P11712 whole entry): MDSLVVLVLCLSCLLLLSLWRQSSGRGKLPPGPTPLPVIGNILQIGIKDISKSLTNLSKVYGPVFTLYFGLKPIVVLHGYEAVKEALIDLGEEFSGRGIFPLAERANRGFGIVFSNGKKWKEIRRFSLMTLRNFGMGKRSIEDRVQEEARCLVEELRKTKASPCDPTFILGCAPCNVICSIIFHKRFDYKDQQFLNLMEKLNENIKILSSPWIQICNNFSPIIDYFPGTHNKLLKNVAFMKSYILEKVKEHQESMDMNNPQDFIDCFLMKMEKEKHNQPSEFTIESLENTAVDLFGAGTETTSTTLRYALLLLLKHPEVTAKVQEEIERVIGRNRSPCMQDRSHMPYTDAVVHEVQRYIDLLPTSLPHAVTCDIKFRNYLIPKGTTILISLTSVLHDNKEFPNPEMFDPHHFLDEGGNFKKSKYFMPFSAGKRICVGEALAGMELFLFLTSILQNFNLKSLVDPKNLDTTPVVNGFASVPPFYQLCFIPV

Bcl-2-related protein A1 = target: T3, Bcl-2-related protein A1 (Mus musculus, UniProt Q07440); type: functional;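 also: confirmatory dose–response counterscreen on Bfl-1, used to check hits from a UBC13 polyubiquitin inhibitor campaign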
T3 sequence (Q07440 whole entry): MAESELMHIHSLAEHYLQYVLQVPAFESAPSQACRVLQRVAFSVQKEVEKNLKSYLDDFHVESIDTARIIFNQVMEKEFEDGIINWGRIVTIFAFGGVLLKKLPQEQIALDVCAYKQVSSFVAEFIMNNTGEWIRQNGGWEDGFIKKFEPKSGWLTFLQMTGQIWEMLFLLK

[4] = target: T4, Ubiquitin-conjugating enzyme E2 N (Homo sapiens, UniProt P61088); type: functional
T4 sequence (P61088 whole entry): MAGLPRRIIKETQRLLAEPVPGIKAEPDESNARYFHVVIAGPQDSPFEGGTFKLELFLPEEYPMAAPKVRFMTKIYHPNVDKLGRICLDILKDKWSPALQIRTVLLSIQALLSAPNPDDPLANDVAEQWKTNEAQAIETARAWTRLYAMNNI

[5] = target: T4, Ubiquitin-conjugating enzyme E2 N; type: functional; remark: listed apart in the source
[6] = target: FAD-linked sulfhydryl oxidase ALR (Homo sapiens, UniProt P55789); test: inhibitors of human ALR sulfhydryl oxidase, dose response, biochemical, H2O2 detection, luminescence, cherry-pick (AID 493248)
Chain of FAD-linked sulfhydryl oxidase ALR (P55789 whole entry): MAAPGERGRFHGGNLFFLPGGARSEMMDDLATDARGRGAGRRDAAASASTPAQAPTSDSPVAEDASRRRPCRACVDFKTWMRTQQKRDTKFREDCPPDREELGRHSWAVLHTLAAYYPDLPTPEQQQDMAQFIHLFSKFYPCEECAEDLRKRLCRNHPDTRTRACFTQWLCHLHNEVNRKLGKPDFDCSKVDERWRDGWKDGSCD

HEK293 [7] = test: inhibitors of LMP1-driven NF-kB reporter, dose response, cell-based, HEK293, luciferase, cherry-pick (AID 588343); type: functional; conditions: Homo sapiens
[8] = target: T5, Replicative DNA helicase DnaB (Mycobacterium tuberculosis, UniProt P9WMR3); test: DnaB intein splicing inhibitors, dose response, biochemical, cell-free fluorescence (AID 449749); type: functional
T5 sequence (P9WMR3 whole entry): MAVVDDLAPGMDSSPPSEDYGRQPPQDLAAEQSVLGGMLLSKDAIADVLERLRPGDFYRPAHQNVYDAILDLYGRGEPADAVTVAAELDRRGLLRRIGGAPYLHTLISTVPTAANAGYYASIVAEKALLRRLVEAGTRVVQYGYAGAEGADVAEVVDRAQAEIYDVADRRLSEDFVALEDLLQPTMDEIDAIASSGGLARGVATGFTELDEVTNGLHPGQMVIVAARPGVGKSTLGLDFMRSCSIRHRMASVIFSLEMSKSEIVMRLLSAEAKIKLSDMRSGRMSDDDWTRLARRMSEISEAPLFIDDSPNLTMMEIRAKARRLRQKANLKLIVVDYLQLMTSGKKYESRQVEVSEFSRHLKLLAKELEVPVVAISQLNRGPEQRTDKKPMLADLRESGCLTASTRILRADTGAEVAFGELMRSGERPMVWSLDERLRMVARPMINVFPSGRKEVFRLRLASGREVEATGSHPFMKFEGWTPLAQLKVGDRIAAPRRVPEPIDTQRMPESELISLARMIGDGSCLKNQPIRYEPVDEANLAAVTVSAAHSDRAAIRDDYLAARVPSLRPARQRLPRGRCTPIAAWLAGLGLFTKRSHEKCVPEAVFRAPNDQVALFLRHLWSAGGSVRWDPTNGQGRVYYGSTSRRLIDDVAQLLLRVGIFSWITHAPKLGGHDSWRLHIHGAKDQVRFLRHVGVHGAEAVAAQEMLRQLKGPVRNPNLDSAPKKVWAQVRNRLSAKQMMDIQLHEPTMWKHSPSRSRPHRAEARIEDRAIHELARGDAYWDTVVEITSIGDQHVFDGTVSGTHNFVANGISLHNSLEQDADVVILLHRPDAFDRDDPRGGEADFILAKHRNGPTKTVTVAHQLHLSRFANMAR

Protein RecA = target: T6, Protein RecA (Mycobacterium tuberculosis, UniProt P9WHJ3); test: Fluorescence Cell-Free Homogeneous Dose Retest to Identify Inhibitors of RecA-Intein Splicing Activity. [Related pubchem assays (depositor defined):AID2097, AID2223, AID489010, AID492950]; type: functional
T6 sequence (P9WHJ3 whole entry): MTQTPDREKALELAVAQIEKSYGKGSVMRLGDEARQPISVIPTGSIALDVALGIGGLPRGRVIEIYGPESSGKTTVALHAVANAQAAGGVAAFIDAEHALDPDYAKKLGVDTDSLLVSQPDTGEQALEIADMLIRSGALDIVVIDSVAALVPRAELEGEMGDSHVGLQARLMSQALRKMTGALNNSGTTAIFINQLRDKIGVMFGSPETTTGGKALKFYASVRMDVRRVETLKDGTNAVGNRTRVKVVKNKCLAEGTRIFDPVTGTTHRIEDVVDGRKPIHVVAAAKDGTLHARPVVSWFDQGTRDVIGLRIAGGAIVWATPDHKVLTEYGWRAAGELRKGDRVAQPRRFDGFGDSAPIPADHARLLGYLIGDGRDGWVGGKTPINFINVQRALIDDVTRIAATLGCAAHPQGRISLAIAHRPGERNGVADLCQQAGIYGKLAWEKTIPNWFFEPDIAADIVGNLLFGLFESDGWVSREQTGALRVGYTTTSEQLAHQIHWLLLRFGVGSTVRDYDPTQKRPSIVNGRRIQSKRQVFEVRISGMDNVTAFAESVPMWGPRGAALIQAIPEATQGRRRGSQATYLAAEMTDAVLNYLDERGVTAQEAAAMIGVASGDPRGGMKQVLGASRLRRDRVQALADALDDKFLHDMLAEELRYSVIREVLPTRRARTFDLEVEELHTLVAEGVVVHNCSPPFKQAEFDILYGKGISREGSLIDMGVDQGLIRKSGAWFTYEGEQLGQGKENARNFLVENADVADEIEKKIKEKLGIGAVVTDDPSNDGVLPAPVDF

Protein Tat = target: T7, Protein Tat (Human immunodeficiency virus type 1 group M subtype B (isolate HXB2)(HIV-1), UniProt P04608); type: functional;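 also: tat binding to TAR RNA read out by fluorescence polarization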
T7 sequence (P04608 whole entry): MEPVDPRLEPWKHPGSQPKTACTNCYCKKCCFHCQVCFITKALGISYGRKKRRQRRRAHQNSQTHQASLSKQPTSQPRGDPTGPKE

[9] = THP-1 cell cytotoxicity, dose response, cytotoxicity control for Vif-APOBEC3G degradation inhibitor project, THP-1 cells (AID 1117359); type: functional; conditions: Human immunodeficiency virus 1, THP-1
[10] = miR-122 activators in hepatoma reporter cells, dose response, cell-based, Huh7 psiCHECK-miR122, Renilla luciferase, cherry-picked (AID 651956); type: functional;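 also: huh7 hepatoma cells stably carrying a psiCHECK-2 miR-122 sensor plasmid; renilla luciferase signal reporting endogenous miR-122 activity after 48 h compound exposure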
[11] = target: T8, DNA repair and recombination protein RAD54-like (Homo sapiens, UniProt Q92698); test: inhibitors of human RAD54 branch migration, confirmation, biochemical, fluorescence, cherry-picked samples, dose series (AID 651657); type: functional
T8 sequence (Q92698 whole entry): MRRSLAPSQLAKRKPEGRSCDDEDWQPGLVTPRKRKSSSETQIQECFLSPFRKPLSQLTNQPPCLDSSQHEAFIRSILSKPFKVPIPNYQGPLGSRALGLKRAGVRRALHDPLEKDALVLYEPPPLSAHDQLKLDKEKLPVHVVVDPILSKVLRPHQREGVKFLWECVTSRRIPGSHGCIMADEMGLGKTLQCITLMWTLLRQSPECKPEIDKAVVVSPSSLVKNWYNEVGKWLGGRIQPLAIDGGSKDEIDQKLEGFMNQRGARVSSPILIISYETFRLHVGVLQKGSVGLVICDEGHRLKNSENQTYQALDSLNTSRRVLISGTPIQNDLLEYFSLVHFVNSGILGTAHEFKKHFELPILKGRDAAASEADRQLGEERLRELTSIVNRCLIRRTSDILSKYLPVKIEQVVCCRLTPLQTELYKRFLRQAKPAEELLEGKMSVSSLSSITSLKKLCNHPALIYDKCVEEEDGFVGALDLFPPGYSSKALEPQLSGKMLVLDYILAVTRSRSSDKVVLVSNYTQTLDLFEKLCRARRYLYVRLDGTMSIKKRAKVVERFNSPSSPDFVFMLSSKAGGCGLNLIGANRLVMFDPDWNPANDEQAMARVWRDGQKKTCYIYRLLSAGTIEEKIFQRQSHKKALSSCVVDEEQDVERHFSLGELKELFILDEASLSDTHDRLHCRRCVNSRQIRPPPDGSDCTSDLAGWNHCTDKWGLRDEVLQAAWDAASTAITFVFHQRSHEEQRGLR

Cytochrome P450 1A2 = target: T9, Cytochrome P450 1A2 (Homo sapiens, UniProt P05177);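 also: PubChem cytochrome P450 panel assay, CYP1A2 panel member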
T9 sequence (P05177 whole entry): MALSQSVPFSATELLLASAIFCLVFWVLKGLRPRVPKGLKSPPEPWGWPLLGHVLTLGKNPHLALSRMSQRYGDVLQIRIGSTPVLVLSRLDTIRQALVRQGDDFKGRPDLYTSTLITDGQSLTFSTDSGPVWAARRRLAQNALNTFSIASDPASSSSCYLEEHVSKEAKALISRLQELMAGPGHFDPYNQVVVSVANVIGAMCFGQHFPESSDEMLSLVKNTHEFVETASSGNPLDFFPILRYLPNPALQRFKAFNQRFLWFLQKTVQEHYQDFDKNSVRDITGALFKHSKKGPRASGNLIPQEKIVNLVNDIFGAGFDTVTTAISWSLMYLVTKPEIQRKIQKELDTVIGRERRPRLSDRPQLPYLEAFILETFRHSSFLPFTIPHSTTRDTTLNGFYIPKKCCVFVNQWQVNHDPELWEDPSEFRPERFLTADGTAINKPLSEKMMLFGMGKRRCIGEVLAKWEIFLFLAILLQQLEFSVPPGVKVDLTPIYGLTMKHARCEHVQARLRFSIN

CC(C)(C)c1ccc(C(=O)O/N=C(\N)c2cccc([N+](=O)[O-])c2)cc1
IC50 (HEK293 [1]): > 20 µM (inactive)

Cc1cc(C)cc(NS(=O)(=O)c2ccc3c(c2)c(=O)n(C)c(=O)n3C)c1
AC50 [2]: 4.67 µM (active)
AC50 (A-375): 17.3 µM (active)

CN(C)c1ccc(NC(=O)c2ccc(CN3CCCCC3)cc2)cc1
IC50 (Tumor necrosis factor): > 20 µM (inactive)
IC50 (HEK293 [1]): > 20 µM (inactive)

COc1cc(NC(=O)c2ccc3c(c2)C(=O)N(CCC(C)C)C3=O)c(C(=O)O)cc1OC
IC50 [3]: 7.04 µM (active)

CCOC(=S)SCC(=O)O
AC50 (Cytochrome P450 2D6): inconclusive

CCCC(=O)Nc1nc(-c2ccccc2)ns1
AC50 (HeLa): 64.7 µM (active)

O=C(CSc1nc2sc3c(c2c(=O)n1-c1ccccc1)CCCC3)N/N=C/c1ccccc1C(=O)O
IC50 [3]: 9.27 µM (active)

CC(=O)c1c(C(C)=O)c(C)n(NC(=O)c2ccccc2Cl)c1C
AC50 (Cytochrome P450 2D6): inconclusive
AC50 (Cytochrome P450 2C9): inconclusive

O=c1nc2sc3ccccc3n2c(=O)n1-c1ccc(Cl)cc1
AC50 (HeLa): 43.9 µM (active)

Cc1cc(Sc2nnc(/N=C/N(C)C)s2)c2ccccc2n1
IC50 (Bcl-2-related protein A1): > 20 µM (inactive)
IC50 [4]: 8.88 µM (active)
IC50 [5]: 11 µM (active)
AC50 [6]: 0.801 µM (active)
AC50 (HEK293 [7]): 2.9 µM (active)
AC50 [8]: 39.8 µM (active)
EC50 (Protein RecA): 10.3 µM (active)

CC(=O)N(\C=C/C=C/C=C1\Sc2ccccc2C1=O)c1ccccc1
AC50 [2]: 8 µM (active)
AC50 (A-375): 50.7 µM (active)
IC50 (Protein Tat): > 100 µM (active)
CC50 [9]: > 40 µM (active)

C=CCc1ccccc1OCC(O)CN1CCN(CCN2C(=O)c3cccc4cccc(c34)C2=O)CC1 (stereo not given)
IC50 (Bcl-2-related protein A1): > 20 µM (inactive)
IC50 [4]: 17.2 µM (active)
IC50 [5]: 17.7 µM (active)
AC50 [10]: 8.26 µM (active)
AC50 [11]: 9.3 µM (active)

COc1ccc(OC)c2nc(O)c(CCNS(=O)(=O)c3ccc(C)cc3)cc12
AC50 (Cytochrome P450 1A2): 12.6 µM (inconclusive)
AC50 (Cytochrome P450 2D6): inconclusive
